This passage reports IC50 results from US12465603B2, “Phthalazinone based modulators for the treatment of disease” (Soley Therapeutics, Inc., priority 2022, dated 2025).

What is called IC50 is the point on the concentration scale where inhibition reaches its midpoint. Read a low IC50 as greater potency.

The test system of assay [1] is A2058 (ATCC, CRL-11147) cells. In words: Cell viability assay (Cell Titre Glo, 72 hours) in A2058 cells. The following applies: Homo sapiens. The assay is classed as cell-based. The essentials:
(§1)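 10-point dose response, top final concentration 30 μM, 1 in 3 dilutions; 5000 cells per well added directly to compound. Incubated 72 hours at 37° C, 5% CO2, then viability read by Cell Titre Glo luminescence and IC50 curves fitted.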

Assay [2] deals with PA1 (ECACC, 90013101) cells. Nature of the assay: Cell viability assay (Cell Titre Glo, 72 hours) in PA1 cells. The assay is classed as cell-based. Conditions: Homo sapiens, PA-1. Put shortly:
as §1

Each structure is given as a SMILES string.

With `Cn1nc(C(=O)N2CCN(c3ccc(C#N)cc3)CC2)c2ccccc2c1=O` [Compound 46], the IC50 in assay [1] and in assay [2] was 1000 to 10000 nM in each case.

As for `Cn1nc(C(=O)N2CCN(c3cc(C#N)cc(C#N)c3)CC2)c2ccccc2c1=O` [Compound 230, 5-(4-(3-methyl-4-oxo-3,4-dihydrophthalazine-1-carbonyl)piperazin-1-yl)isophthalonitrile], the values for the IC50 in assay [1] and in assay [2] were 1000 to 10000 nM and at most 1000 nM, respectively.

Take `COc1cc(Cl)ccc1N1CCN(C(=O)c2nn(C)c(=O)c3ccccc23)CC1` [Compound 57]: the IC50 in assay [1] is 1000 to 10000 nM; in assay [2] it was at most 1000 nM.

In the case of `COc1ccncc1N1CCN(C(=O)c2nn(C)c(=O)c3ccc(F)cc23)CC1` [Compound 158], the half-maximal inhibitory concentration (IC50) in assay [1] and in assay [2] was at most 1000 nM throughout.

In the case of `COc1cc(F)cc(N2CCN(C(=O)c3nn(C)c(=O)c4cnccc34)CC2)c1` [Compound 180], the results for the IC50 in assay [1] and in assay [2] were 1000 to 10000 nM and at most 1000 nM, respectively.

Turning to `O=C(c1nn(CC(F)(F)F)c(=O)c2ccccc12)N1CCN(c2ccccc2)CC1` [Compound 6], the IC50 in assay [1] and in assay [2] was above 20000 nM in each case.

Regarding `CCn1nc(C(=O)N2CCN(c3cccc(OC)c3Br)CC2)c2ccccc2c1=O` [Compound 153], the IC50 in assay [1] and in assay [2] was 1000 to 10000 nM each time.

As to `Cn1nc(C(=O)N2CCN(c3ccccc3C3CC3)CC2)c2cnccc2c1=O` [Compound 177], the IC50 in assay [1] and in assay [2] was at most 1000 nM in each case.

`CCn1nc(C(=O)N2CCN(c3cc(C#N)ccc3C3CC3)CC2)c2cnccc2c1=O` [Compound 242]: the IC50 in assay [1] and in assay [2] was at most 1000 nM throughout.

`COc1cc(F)cc(N2CCN(C(=O)c3nn(C)c(=O)c4ncccc34)CC2)c1` [Compound 184, 5-(4-(3-fluoro-5-methoxyphenyl)piperazine-1-carbonyl)-7-methylpyrido[2,3-d]pyridazin-8(7H)-one]: the IC50 in assay [1] was in the range of 10000 to 20000 nM; in assay [2], 1000 to 10000 nM.

On to `Cn1nc(C(=O)N2CCN(c3cccc(C4CC4)c3)CC2)c2ccccc2c1=O` [Compound 41], for which the IC50 in assay [1] and in assay [2] was at most 1000 nM in each case.

`Cn1nc(C(=O)N2CCN(c3cc(C#N)ccc3C(F)F)CC2)c2ccccc2c1=O` [Compound 200]: the IC50 in assay [1] and in assay [2] was 1000 to 10000 nM each time.

With `Cn1nc(C(=O)N2CCN(c3cc(F)cc(OC(F)(F)F)c3)CC2)c2ccccc2c1=O` [Compound 197], the IC50 in assay [1] was 1000 to 10000 nM; in assay [2], at most 1000 nM.

Regarding `Cn1nc(C(=O)N2CCN(c3cncc(C(F)F)c3)CC2)c2ccccc2c1=O` [Compound 63], the IC50 in assay [1] and in assay [2] was above 20000 nM throughout.

Regarding `Cn1nc(C(=O)N2CCN(c3ccccc3)CC2)c2ccncc2c1=O` [Compound 171, 3-methyl-1-(4-phenylpiperazine-1-carbonyl)pyrido[3,4-d]pyridazin-4-one], the IC50 in assay [1] and in assay [2] was above 20000 nM in each case.

Turning to `COc1ncccc1N1CCN(C(=O)c2nn(C)c(=O)c3ccccc23)CC1` [Compound 20], the IC50 in assay [1] and in assay [2] was 1000 to 10000 nM throughout.

As to `CCn1nc(C(=O)N2CCN(c3ccc(OCCOC)cc3Cl)CC2)c2ccccc2c1=O` [Compound 127], the IC50 in assay [1] and in assay [2] was above 20000 nM in each case.

`Cc1cc(C#N)cc(N2CCN(C(=O)c3nn(C)c(=O)c4ccncc34)CC2)c1` [Compound 214]: the IC50 was 1000 to 10000 nM in assay [1] and at most 1000 nM in assay [2].

`Cc1ccc(N2CCN(C(=O)c3nn(C)c(=O)c4ccccc34)CC2)cc1` [Compound 10, 2-methyl-4-[4-(p-tolyl)piperazine-1-carbonyl]phthalazin-1-one]: the IC50 in assay [1] and in assay [2] was above 20000 nM throughout.

With `CCn1nc(C(=O)N2CCN(c3ccc(C(F)(F)F)cc3C)CC2)c2ccccc2c1=O` [Compound 104], the IC50 in assay [1] and in assay [2] was 1000 to 10000 nM throughout.

With `Cn1nc(C(=O)N2CCN(c3cc(C#N)cc(C4CC4)c3)CC2)c2ccccc2c1=O` [Compound 206], the IC50 in assay [1] and in assay [2] was at most 1000 nM in each case.

Turning to `Cc1nc2c(N3CCN(C(=O)c4nn(C)c(=O)c5ccccc45)CC3)cccc2o1` [Compound 53], the IC50 in assay [1] and in assay [2] was 1000 to 10000 nM in each case.

As to `Cn1nc(C(=O)N2CCN(c3ccncc3C3CC3)CC2)c2ccccc2c1=O` [Compound 71], the IC50 in assay [1] and in assay [2] was at most 1000 nM in each case.

For the compound `Cn1nc(C(=O)N2CCN(c3cccc4nccn34)CC2)c2ccccc2c1=O` [Compound 231, 4-(4-(imidazo[1,2-a]pyridin-5-yl)piperazine-1-carbonyl)-2-methylphthalazin-1(2H)-one], the IC50 in assay [1] and in assay [2] was above 20000 nM each time.

Turning to `CCn1nc(C(=O)N2CCN(c3nccnc3OC)CC2)c2ccccc2c1=O` [Compound 99], the IC50 in assay [1] and in assay [2] was 1000 to 10000 nM throughout.

Consider `CCc1ccncc1N1CCN(C(=O)c2nn(C)c(=O)c3ccc(F)cc23)CC1` [Compound 166], for which the IC50 in assay [1] and in assay [2] was at most 1000 nM in each case.

As for `Cc1cc(C#N)cc(N2CCN(C(=O)c3nn(C)c(=O)c4ccccc34)CC2)c1` [Compound 68], the IC50 in assay [1] and in assay [2] was at most 1000 nM throughout.

Regarding `COc1ccccc1N1CCN(C(=O)c2nn(C)c(=O)c3ncccc23)CC1` [Compound 183], the IC50 in assay [1] was above 20000 nM; in assay [2], 10000 to 20000 nM.

In the case of `CCn1nc(C(=O)N2CCN(c3ccc(F)c4c3CCO4)CC2)c2ccccc2c1=O` [Compound 188], the IC50 in assay [1] and in assay [2] was at most 1000 nM throughout.

As to `Cn1nc(C(=O)N2CCN(c3ccc(F)cc3C3CC3)CC2)c2ccccc2c1=O` [Compound 60], the IC50 in assay [1] and in assay [2] was at most 1000 nM each time.

Take `Cn1nc(C(=O)N2CCN(c3cncc(Cl)c3)CC2)c2cc(F)ccc2c1=O` [Compound 165]: the IC50 in assay [1] and in assay [2] was 1000 to 10000 nM each time.

In the case of `COc1ccccc1N1CCN(C(=O)c2nn(C)c(=O)c3cnccc23)CC1` [Compound 179], the IC50 in assay [1] and in assay [2] was 1000 to 10000 nM in each case.

`Cc1cc(N2CCN(C(=O)c3nn(C)c(=O)c4ccc(F)cc34)CC2)ccn1` [Compound 161]: the 50% inhibitory concentration (IC50) in assay [1] and in assay [2] was above 20000 nM each time.

In the case of `Cn1nc(C(=O)N2CCN(c3ccc(F)c(F)c3)CC2)c2ccccc2c1=O` [Compound 43], the IC50 in assay [1] and in assay [2] was 1000 to 10000 nM throughout.

`Cn1nc(C(=O)N2CCN(c3cc(Cl)cc(C#N)c3)CC2)c2cnccc2c1=O` [Compound 223]: the half-inhibitory concentration (IC50) in assay [1] was 1000 to 10000 nM; in assay [2] it was at most 1000 nM.

For `CCn1nc(C(=O)N2CCN(c3ccccc3OC)CC2)c2ccccc2c1=O` [Compound 101], the IC50 in assay [1] and in assay [2] was at most 1000 nM in each case.

Consider `CCn1nc(C(=O)N2CCN(c3cccc(C#N)c3)CC2)c2cc(F)ccc2c1=O` [Compound 240], for which the IC50 in assay [1] and in assay [2] was at most 1000 nM throughout.

`CCn1nc(C(=O)N2CCN(c3cc(F)cc(C#N)c3)CC2)c2cnccc2c1=O` [Compound 241, 3-(4-(2-ethyl-1-oxo-1,2-dihydropyrido[3,4-d]pyridazine-4-carbonyl)piperazin-1-yl)-5-fluorobenzonitrile]: the concentration for half-maximal inhibition (IC50) in assay [1] and in assay [2] was at most 1000 nM throughout.

With `O=C(c1nn(CC(F)F)c(=O)c2ccccc12)N1CCN(c2ccccc2)CC1` [Compound 7], the IC50 in assay [1] and in assay [2] was above 20000 nM throughout.

For `CCn1nc(C(=O)N2CCN(c3cccc(C#N)c3OC)CC2)c2ccccc2c1=O` [Compound 151, 3-(4-(3-ethyl-4-oxo-3,4-dihydrophthalazine-1-carbonyl)piperazin-1-yl)-2-methoxybenzonitrile], the results for the IC50 in assay [1] and in assay [2] were 10000 to 20000 nM and 1000 to 10000 nM, respectively.

Turning to `COc1ccccc1N1CCN(C(=O)c2nn(C)c(=O)c3ccncc23)CC1` [Compound 175], the IC50 in assay [1] was 1000 to 10000 nM; in assay [2], at most 1000 nM.

With `CCn1nc(C(=O)N2CCN(c3cncnc3C3CC3)CC2)c2ccccc2c1=O` [Compound 122], the IC50 in assay [1] was 1000 to 10000 nM; in assay [2], at most 1000 nM.

As for `CCc1cncc(N2CCN(C(=O)c3nn(C)c(=O)c4ccc(F)cc34)CC2)c1` [Compound 210], the IC50 is 1000 to 10000 nM in assay [1] and at most 1000 nM in assay [2].

`CCn1nc(C(=O)N2CCN(c3cc(Cl)cc(C#N)c3)CC2)c2cnccc2c1=O` [Compound 244]: the IC50 in assay [1] and in assay [2] was at most 1000 nM throughout.

`Cn1nc(C(=O)N2CCN(c3nnccc3C3CC3)CC2)c2ccccc2c1=O` [Compound 185, 4-[4-(4-cyclopropylpyridazin-3-yl)piperazine-1-carbonyl]-2-methyl-phthalazin-1-one]: the half-inhibitory concentration (IC50) in assay [1] and in assay [2] was 1000 to 10000 nM in each case.

As to `CCn1nc(C(=O)N2CCN(c3ncccc3C)CC2)c2ccccc2c1=O` [Compound 106], the IC50 in assay [1] and in assay [2] was 1000 to 10000 nM throughout.

As to `Cn1nc(C(=O)N2CCN(c3ccc(C(F)(F)F)cc3)CC2)c2ccccc2c1=O` [Compound 27], the IC50 in assay [1] and in assay [2] was 1000 to 10000 nM in each case.

On to `Cn1nc(C(=O)N2CCN(c3cccc(C#N)c3)CC2)c2cnccc2c1=O` [Compound 219], for which the IC50 in assay [1] and in assay [2] was 1000 to 10000 nM each time.

Consider `COc1ncc(F)cc1N1CCN(C(=O)c2nn(C)c(=O)c3ccccc23)CC1` [Compound 75], for which the IC50 in assay [1] and in assay [2] was at most 1000 nM in each case.
